Data on 19 compounds can be found in PMC7007966 (Journal of medicinal chemistry, 2019).

The target of experiment [1] is T1, rat DOR (C6-DOR membranes) (Rattus norvegicus, UniProt P33533). The note with it: [35S]-GTPγS stimulation relative to DPDPE; cited from earlier work. (GTPγS is a poorly hydrolysed GTP analogue; its binding reports G protein activation.)
Experiment [2] deals with T2, rat MOR (C6-MOR membranes) (Rattus norvegicus, UniProt P33535). In words: [35S]-GTPγS binding assay. Type of experiment: biochemical. Conditions: [35S]-GTPγS stimulation relative to DAMGO.
Experiment [3] addresses T1, rat DOR (C6-DOR membranes). In words: [35S]-GTPγS binding assay. It counts as biochemical. The note with it: for DOR efficacy (in words): [35S]-GTPγS stimulation relative to DPDPE at 10 μM.
Experiment [4] deals with T3, human KOR (CHO-KOR membranes) (Homo sapiens, UniProt P41145). In words: Radioligand competition binding, [3H]-diprenorphine displacement. Conditions: competitive displacement of [3H]-diprenorphine, membrane preparations. Background: Displacement assays read how much labelled ligand stays bound in the presence of the test substance.
Experiment [5] has as its target T3, human KOR (CHO-KOR membranes). In words: [35S]-GTPγS binding assay. Type of experiment: biochemical. The note with it: [35S]-GTPγS stimulation relative to U69,593 at 10 μM.
Experiment [6] deals with T2, rat MOR (C6-MOR membranes). In words: Radioligand competition binding, [3H]-diprenorphine displacement. The note with it: ratio of binding affinities; 1A-D, 2B, 2D previously reported compounds.

“Also recorded” adds a separate entry of the source.

As for `Cc1cc(O)cc(C)c1C[C@H](N)C(=O)N[C@@H]1CCNc2ccc(Cc3ccccc3)cc21.O=C(O)C(F)(F)F` [Compound 1A], the “DOR efficacy (in words), previously reported compounds” value in experiment [1] is given as “low DOR agonist activity”.

Take `Cc1cc(O)cc(C)c1C[C@H](N)C(=O)N[C@@H]1CCN(C(=O)c2ccccc2)c2ccc(Cc3cnc4ccccc4c3)cc21.O=C(O)C(F)(F)F` [Compound 5C]: the “MOR efficacy (in words)” value in experiment [2] is recorded as “partial MOR efficacy”.

On to `CC(=O)N1CC[C@@H](NC(=O)[C@@H](N)Cc2c(C)cc(O)cc2C)c2cc(Cc3cnc4ccccc4c3)ccc21.O=C(O)C(F)(F)F` [Compound 2C], for which the “DOR efficacy (in words)” value in experiment [3] was “significant efficacy at DOR”.

Regarding `Cc1cc(O)cc(C)c1C[C@H](N)C(=O)N[C@@H]1CCN(S(C)(=O)=O)c2ccc(CN3CCc4ccccc4C3)cc21.O=C(O)C(F)(F)F` [Compound 4D], the “KOR affinity (in words)” value in experiment [4] is “relatively high KOR affinity”. In experiment [5], the “KOR efficacy (in words)” value was “relatively high KOR affinity and efficacy”.

Turning to `Cc1cc(O)cc(C)c1C[C@H](N)C(=O)N[C@@H]1CCNc2ccc(Cc3cc4ccccc4o3)cc21.O=C(O)C(F)(F)F` [Compound 1F], the “MOR efficacy (in words)” value in experiment [2] is listed as “MOR agonists”. In addition, the “DOR efficacy (in words)” value in experiment [3] is “DOR antagonists”.

Consider `Cc1cc(O)cc(C)c1C[C@H](N)C(=O)N[C@@H]1CCN(C(=O)C2CC2)c2ccc(Cc3ccccc3)cc21.O=C(O)C(F)(F)F` [Compound 3A], for which the “DOR efficacy (in words)” value in experiment [3] is recorded as “significant efficacy at DOR”.

Turning to `Cc1cc(O)cc(C)c1C[C@H](N)C(=O)N[C@@H]1CCN(C(=O)c2ccccc2)c2ccc(Cc3cc4ccccc4o3)cc21.O=C(O)C(F)(F)F` [Compound 5F], in experiment [2], the “MOR efficacy (in words)” value is listed as “MOR partial agonist”. Besides, the “DOR efficacy (in words)” value in experiment [3] is reported as “DOR antagonist”.

On to `Cc1cc(O)cc(C)c1C[C@H](N)C(=O)N[C@@H]1CCN(C(=O)c2ccccc2)c2ccc(Cc3ccc4c(c3)OCCO4)cc21.O=C(O)C(F)(F)F` [Compound 5E], for which the “MOR efficacy (in words)” value in experiment [2] is recorded as “no significant MOR efficacy”.

Consider `Cc1cc(O)cc(C)c1C[C@H](N)C(=O)N[C@@H]1CCN(S(C)(=O)=O)c2ccc(Cc3ccccc3)cc21.O=C(O)C(F)(F)F` [Compound 4A], for which the “DOR efficacy (in words)” value in experiment [3] was “partial DOR agonism”.

For the compound `CC(=O)N1CC[C@@H](NC(=O)[C@@H](N)Cc2c(C)cc(O)cc2C)c2cc(Cc3ccccc3)ccc21.O=C(O)C(F)(F)F` [Compound 2A], in experiment [1], the “DOR efficacy (in words), previously reported compounds” value is reported as “significant efficacy at DOR”.

Turning to `CC(=O)N1CC[C@@H](NC(=O)[C@@H](N)Cc2c(C)cc(O)cc2C)c2cc(Cc3cc4ccccc4o3)ccc21.O=C(O)C(F)(F)F` [Compound 2F], the “MOR efficacy (in words)” value in experiment [2] is “MOR agonists”. Further, the “DOR efficacy (in words)” value in experiment [3] is “significant efficacy at DOR; also recorded: DOR partial agonists”.

As for `Cc1cc(O)cc(C)c1C[C@H](N)C(=O)N[C@@H]1CCN(C(=O)c2ccccc2)c2ccc(Cc3ccc4ccccc4c3)cc21.O=C(O)C(F)(F)F` [Compound 5B], in experiment [2], the “MOR efficacy (in words)” value is given as “partial MOR efficacy”.

For `Cc1cc(O)cc(C)c1C[C@H](N)C(=O)N[C@@H]1CCN(C(=O)C2CC2)c2ccc(Cc3cc4ccccc4o3)cc21.O=C(O)C(F)(F)F` [Compound 3F], in experiment [2], the “MOR efficacy (in words)” value is “MOR agonists”. Moreover, the “DOR efficacy (in words)” value in experiment [3] is listed as “significant efficacy at DOR; also recorded: DOR partial agonists”.

Turning to `CC(=O)N1CC[C@@H](NC(=O)[C@@H](N)Cc2c(C)cc(O)cc2C)c2cc(CN3CCc4ccccc4C3)ccc21.O=C(O)C(F)(F)F` [Compound 2D], the “KOR affinity (in words)” value in experiment [4] is reported as “relatively high KOR affinity”. For the same compound, the “KOR efficacy (in words)” value in experiment [5] was “relatively high KOR affinity and efficacy”.

As for `Cc1cc(O)cc(C)c1C[C@H](N)C(=O)N[C@@H]1CCN(S(C)(=O)=O)c2ccc(Cc3cc4ccccc4o3)cc21.O=C(O)C(F)(F)F` [Compound 4F], in experiment [2], the “MOR efficacy (in words)” value is recorded as “MOR agonists”. Also, the “DOR efficacy (in words)” value in experiment [3] was “DOR antagonists”.

In the case of `CC(=O)N1CC[C@@H](NC(=O)[C@@H](N)Cc2c(C)cc(O)cc2C)c2cc(Cc3ccc4ccccc4c3)ccc21.O=C(O)C(F)(F)F` [Compound 2B], the “DOR efficacy (in words), previously reported compounds” value in experiment [1] is “DOR antagonist profile”.

As for `Cc1cc(O)cc(C)c1C[C@H](N)C(=O)N[C@@H]1CCNc2ccc(Cc3ccc4ccccc4c3)cc21.O=C(O)C(F)(F)F` [Compound 1B], in experiment [6], the “selectivity for MOR over DOR (DOR Ki/MOR Ki)” value is 100 fold.

As for `Cc1cc(O)cc(C)c1C[C@H](N)C(=O)N[C@@H]1CCN(C(=O)C2CC2)c2ccc(Cc3ccc4ccccc4c3)cc21.O=C(O)C(F)(F)F` [Compound 3B], in experiment [3], the “DOR efficacy (in words)” value was “significant efficacy at DOR”.

As to `Cc1cc(O)cc(C)c1C[C@H](N)C(=O)N[C@@H]1CCN(C(=O)C2CC2)c2ccc(Cc3cnc4ccccc4c3)cc21.O=C(O)C(F)(F)F` [Compound 3C], in experiment [3] ([35S]-GTPγS stimulation), the “DOR agonist potency (in words)” value is on record as “subnanomolar”. For the same compound, the “DOR efficacy (in words)” value in experiment [3] was “significant efficacy at DOR”.
